From PMC9684503 (Communications Biology, 2022)
Counter-ions that a name gives are not always drawn. Like-named read-outs stand apart in the source and are kept apart here.

Molecular target: T1, rat VMAT2-His (Rattus norvegicus, UniProt Q01827)
T1 construct: The ORF of rat VMAT2 was subcloned into a pFastBac vector; His; made in house; host or cells: Sf9 insect cells (baculovirus)
Assay: Differential scanning fluorimetry (DSF) with CPM dye: change of melting temperature of purified VMAT2
Format: binding
Conditions: for ΔTm at 12 µM / ΔTm at 37 µM / ΔTm at 10 µM / ΔTm at 30 µM / ΔTm at 90 µM / ΔTm at 270 µM / ΔTm at 11 µM / ΔTm at 33 µM: read-out: ΔTm
Procedure: To screen purified VMAT2 by DSF we expressed the rat VMAT2 protein, as VMAT2-His, in SF9 insect cells using the baculovirus expression system. The transporter was solubilized and purified in n-Dodecyl-β-D-maltoside (DDM)/cholesterol hemisuccinate (CHS) micelles by immobilized metal affinity chromatography (IMAC) and size exclusion chromatography (SEC). […] Screening was performed using DSF and the thiol-reactive dye 7-diethylamino-3-(4-maleimidophenyl)-4-methylcoumarin (CPM), an approach that monitors changes to the protein melting temperature (Tm) upon compound binding. Using CPM or other dyes, DSF-based assays have successfully been used in molecular-based screenings[34],[35]. […] DSF screening was performed in 384 well plates using the thiol-sensing dye 7-diethylamino-3-(4-maleimidophenyl)-4-methylcoumarin (CPM) (Merck). […] Protein melting curves were determined using a LightCycler 480 ii RT-PCR system (Roche), with a temperature ramp increasing from 25 to 95 °C at a rate of 2 °C/min. Data analysis was performed using an in-house software that automatically determines the protein midpoint melting temperature (Tm) based on the second derivative of the melting curves or using the HTSDSF explorer as described in ref. [58]. […] 6 μl of this mix was dispensed to each well of 384 well plates using a Multidrop™ Combi Reagent Dispenser (Thermo Scientific). […] All initial hits were then subjected to an initial validation in triplicates with a compound concentration of 200 μM and a ΔTm > 5× the standard deviation (SD) cut off. […] Processing of the data from the primary screening and the concentration-dependent validation was performed as reported.

[1] = Table S1, primary hits, average change in melting temperature vs controls, triplicates
[2] = Table S2 dose response, compound 0,12 µM
[3] = Table S2 dose response, compound 0,37 µM
[4] = Table S2 dose response, compound 10 µM
[5] = Table S2 dose response, compound 30 µM
[6] = Table S2 dose response, compound 90 µM
[7] = Table S2 dose response, compound 270 µM
[8] = Table S2 dose response, compound 1,11 µM
[9] = Table S2 dose response, compound 3,33 µM

T1 sequence (Q01827 whole entry): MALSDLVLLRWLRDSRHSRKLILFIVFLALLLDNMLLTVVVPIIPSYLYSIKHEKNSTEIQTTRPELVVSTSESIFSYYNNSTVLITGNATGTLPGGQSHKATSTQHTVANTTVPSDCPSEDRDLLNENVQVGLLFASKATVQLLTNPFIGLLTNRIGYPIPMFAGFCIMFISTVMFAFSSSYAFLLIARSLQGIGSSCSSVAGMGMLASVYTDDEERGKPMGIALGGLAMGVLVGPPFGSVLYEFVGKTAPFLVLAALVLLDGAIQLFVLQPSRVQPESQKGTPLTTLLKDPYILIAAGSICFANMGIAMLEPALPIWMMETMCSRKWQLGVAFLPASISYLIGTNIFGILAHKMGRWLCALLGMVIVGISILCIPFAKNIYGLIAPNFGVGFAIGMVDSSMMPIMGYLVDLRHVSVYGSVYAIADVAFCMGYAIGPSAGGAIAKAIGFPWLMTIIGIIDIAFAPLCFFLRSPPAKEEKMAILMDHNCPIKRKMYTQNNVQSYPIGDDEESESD

SMILES	ΔTm [1]	ΔTm at 12 µM [2] [°C]	ΔTm at 37 µM [3] [°C]	ΔTm at 10 µM [4] [°C]	ΔTm at 30 µM [5] [°C]	ΔTm at 90 µM [6] [°C]	ΔTm at 270 µM [7] [°C]	ΔTm at 11 µM [8] [°C]	ΔTm at 33 µM [9] [°C]	further results
C[C@H](CCC(=O)O)[C@H]1CC[C@H]2[C@@H]3[C@H](O)C[C@@H]4C[C@H](O)CC[C@]4(C)[C@H]3CC[C@]12C [Chenodiol]	1,98 ± 0,15 oC	-0.11	-0.01	0.64	0.35	0.57	2.24	0.17	0.19	
CCSc1ccc2c(c1)N(CCCN1CCN(C)CC1)c1ccccc1S2.O=C(O)CC(O)C(=O)O.O=C(O)CC(O)C(=O)O [Thiethylperazine dimalate]										ΔTm (11 µM): -0,77 oC; ΔTm (12 µM): -0,61 oC; ΔTm (33 µM): -0,78 oC; ΔTm (37 µM): -0,58 oC; ΔTm (270 µM): -3,69 oC; ΔTm [4]: -1,01 oC; ΔTm [5]: -1,34 oC; ΔTm [6]: -2,15 oC
O=C(c1ccc(F)cc1)C1CCN(CCn2c(=O)[nH]c3ccccc3c2=O)CC1 [Ketanserin tartrate hydrate]	3,12 ± 0,24 oC			1.16	1.17	0.95	2.18			
CCCCCCC[N+](CC)(CC)CCCCc1ccc(Cl)cc1.Cc1ccc(S(=O)(=O)[O-])cc1 [Clofilium tosylate]										ΔTm (270 µM): -2,26 oC; ΔTm [4]: -0,06 oC; ΔTm [5]: -0,15 oC; ΔTm [6]: -0,36 oC
CC(C)(C)NC(=O)[C@@H]1C[C@@H]2CCCC[C@@H]2CN1C[C@@H](O)[C@H](Cc1ccccc1)NC(=O)[C@H](CC(N)=O)NC(=O)c1ccc2ccccc2n1 [Saquinavir mesylate]		-0.17	-0.28	-0.91	-0.7	-0.55	-1.64	-0.49	-0.65	
CC(C)COCC(CN(Cc1ccccc1)c1ccccc1)N1CCCC1 (stereo not drawn) [Bepridil hydrochloride]		-0.78	-0.68	-1.08	-1.2	-1.63	-3.8	-0.75	-0.93	
CCCc1nn(C)c2c(=O)[nH]c(-c3cc(S(=O)(=O)N4CCN(C)CC4)ccc3OCC)nc12 [Sildenafil]	1,10 ± 0,14 oC	0.43	0.04	0.11	0.1	0.39	1.04	0.04	0.09	
C=CCc1ccccc1OCC(O)CNC(C)C (stereo not drawn) [Alprenolol hydrochloride]	2,30 ± 0,05 oC	-0.11	-0.04	0.14	0.73	0.4	1.21	0.04	0.02	
C[C@@H]1C[C@H]2[C@@H]3C[C@H](F)C4=CC(=O)C=C[C@]4(C)[C@@]3(Cl)[C@@H](O)C[C@]2(C)[C@H]1C(=O)COC(=O)C(C)(C)C [Clocortolone pivalate]	1,04 ± 0,11 oC									
Clc1ccc(Cn2c(CN3CCCC3)nc3ccccc32)cc1 [Clemizole hydrochloride]	-1,46 ± 0,10 oC			0.33	0.57	0.31	-0.69			
CC(C)(C)c1ccc(C(O)CCCN2CCC(C(O)(c3ccccc3)c3ccccc3)CC2)cc1 (stereo not drawn) [Terfenadine]	-13,22 ± 0,13 oC			0.21	0.24	-0.01	-0.6			
Fc1ccc(C(OCCN2CCN(CCCc3ccccc3)CC2)c2ccc(F)cc2)cc1 [GBR 12909 dihydrochloride]	-17,11 ± 0,01 oC	-0.02	-0.01	-1.07	-1.67	-2.3	-5.4	0.05	-0.34	
Cl.Cl.OCCN1CCN(CC/C=C2/c3ccccc3Sc3ccc(Cl)cc32)CC1 [Zuclopenthixol dihydrochloride]										ΔTm (11 µM): -0,58 oC; ΔTm (12 µM): -0,36 oC; ΔTm (33 µM): 0,03 oC; ΔTm (37 µM): -0,44 oC; ΔTm (270 µM): -1,51 oC; ΔTm [4]: -0,07 oC; ΔTm [5]: -1,80 oC; ΔTm [6]: -0,79 oC
CC(CCc1ccccc1)NCC(O)c1ccc(O)c(C(N)=O)c1 (stereo not drawn) [Labetalol hydrochloride]	0,81 ± 0,07 oC			0.27	0.42	0.1	0.24			
Cc1cccc(C)c1NC(=O)CN1CCN(CCCC(c2ccc(F)cc2)c2ccc(F)cc2)CC1 [Lidoflazine]	1,35 ± 0,18 oC	0.23	0.05	0.23	0.21	0.33	1.14	0.12	0.16	
COC(=O)[C@H]1[C@H]2C[C@@H]3c4[nH]c5cc(OC)ccc5c4CCN3C[C@H]2C[C@@H](OC(=O)c2cc(OC)c(OC)c(OC)c2)[C@@H]1OC [Reserpine]										ΔTm at 10 µM: 13.5 °C; ΔTm at 11 µM: 13.6 °C; ΔTm at 12 µM: 13.7 °C; ΔTm at 30 µM: 13.9 °C; ΔTm at 33 µM: 13.6 °C; ΔTm at 37 µM: 13.7 °C; ΔTm at 90 µM: 14 °C; ΔTm at 270 µM: 13.7 °C
CCCCC(CC)CN1CN(CC(CC)CCCC)CC(C)(N)C1 (stereo not drawn) [Hexetidine]		-0.09	-0.06	-0.28	-0.3	-0.46	-1.54	-0.02	-0.07	
CC(NCCC(c1ccccc1)c1ccccc1)c1ccccc1 (stereo not drawn) [Fendiline hydrochloride]				-0.22	-0.24	-1.16	-3.27			
CN1CCN(CCCN2c3ccccc3Sc3ccc(C(F)(F)F)cc32)CC1 [Trifluoperazine dihydrochloride]										ΔTm: -6,15 ± 0, 08 oC; ΔTm at 10 µM: -0.69 °C; ΔTm at 30 µM: -0.28 °C; ΔTm at 90 µM: -0.23 °C; ΔTm at 270 µM: -1.05 °C
C#CCN(C)[C@H](C)Cc1ccccc1 [Selegiline hydrochloride]				0.3	0.19	0.28				ΔTm at 11 µM: 0.31 °C; ΔTm at 12 µM: 0.33 °C; ΔTm at 33 µM: 0.32 °C; ΔTm at 37 µM: 0.38 °C; ΔTm at 270 µM: 0.36 °C
CN1CCCC(n2nc(Cc3ccc(Cl)cc3)c3ccccc3c2=O)CC1 (stereo not drawn) [Azelastine HCl]	0,85 ± 0,24 oC			-0.6	0.35	0.23	0.55			
CN[C@@H]1C[C@@H](c2ccc(Cl)c(Cl)c2)c2ccccc21 [Indatraline hydrochloride]				-0.37	-0.63	-1.01				ΔTm at 11 µM: -0.28 °C; ΔTm at 12 µM: 0.24 °C; ΔTm at 33 µM: -0.41 °C; ΔTm at 37 µM: 0.04 °C; ΔTm at 270 µM: -2.11 °C
OC(c1cc(C(F)(F)F)nc2c(C(F)(F)F)cccc12)C1CCCCN1 (stereo not drawn) [Mefloquine hydrochloride]	-11,15 ± 0,23 oC	-0.02	0.04	0.1	0.21	0.09	0.08	0	-0.11	
CN1CCC(=C2c3ccccc3Sc3ccccc32)CC1 [Pimethixene maleate]				0.15	-0.18	-0.14	-1.59			
CC(C(O)c1ccc(O)cc1)N1CCC(Cc2ccccc2)CC1.CC(C(O)c1ccc(O)cc1)N1CCC(Cc2ccccc2)CC1.O=C(O)C(O)C(O)C(=O)O (stereo not drawn) [Ifenprodil tartrate]	1,23 ± 0,40 oC									ΔTm (11 µM): -0,20 oC; ΔTm (12 µM): 0,30 oC; ΔTm (33 µM): 0,14 oC; ΔTm (37 µM): 0,32 oC; ΔTm (270 µM): 0,41 oC; ΔTm [4]: 0,09 oC; ΔTm [5]: 0,06 oC; ΔTm [6]: -0,04 oC
C[C@H](CCC(=O)O)[C@H]1CC[C@H]2[C@@H]3C(=O)C[C@@H]4CC(=O)CC[C@]4(C)[C@H]3CC(=O)[C@]12C [Dehydrocholic acid]	1,51 ± 0,28 oC			0.39	0.66	0.53	1.43			
CN(C)CCCN1c2ccccc2Sc2ccc(C(F)(F)F)cc21 [Triflupromazine hydrochloride]										ΔTm: -4,15 ± 0, 03 oC; ΔTm at 10 µM: -0.1 °C; ΔTm at 30 µM: -0.1 °C; ΔTm at 90 µM: -0.84 °C; ΔTm at 270 µM: -2.21 °C
